Source: ChEMBL document CHEMBL5154678, “Lysine Stapling Screening Provides Stable and Low Toxic Cationic Antimicrobial Peptides Combating Multidrug-Resistant Bacteria In Vitro and In Vivo” (J Med Chem, 2022)
Values after ≈ are worked out from the molar mass of the structure shown. Active and inactive are the calls of the source. The rule behind the calls is not given here. Starred links: 1 amine or outer side, 2 acyl side, 3 side chain; linkers in the order of their positions; H or OH if unused. Positions of bridges follow the written chain, without caps; N, C: chain ends. Non-standard residues stand in square brackets, D forms with d. Residues, ends and D or L forms follow the SMILES beside them. X1 = O=C([C@H](CCCCNCC=[*:3])N[*:1])[*:2]

How the values were obtained:
[1] = tested on: Staphylococcus aureus; assay: Antibacterial activity against methicillin-resistant Staphylococcus aureus assessed as inhibition of bacterial growth incubated for 16 hrs by broth microdilution method; assay type: functional
[2] = tested on: Staphylococcus aureus; assay: Antibacterial activity against Staphylococcus aureus BNCC 186335 assessed as inhibition of bacterial growth incubated for 16 hrs by broth microdilution method; assay type: functional
[3] = tested on: Listeria monocytogenes; assay: Antibacterial activity against Listeria monocytogenes assessed as inhibition of bacterial growth incubated for 16 hrs by broth microdilution method; assay type: functional
[4] = tested on: Pseudomonas aeruginosa; assay: Antibacterial activity against Pseudomonas aeruginosa BNCC 125486 assessed as inhibition of bacterial growth incubated for 16 hrs by broth microdilution method; assay type: functional
[5] = tested on: Escherichia coli; assay: Antibacterial activity against Escherichia coli BNCC 133264 assessed as inhibition of bacterial growth incubated for 16 hrs by broth microdilution method; assay type: functional
[6] = tested on: Escherichia coli; assay: Antibacterial activity against cephalosporin-resistant Escherichia coli BNCC 133264 assessed as inhibition of bacterial growth incubated for 16 hrs by broth microdilution method; assay type: functional
[7] = tested on: Erythrocyte; assay: Hemolytic activity against human RBC assessed as concentration required to cause 10% hemolysis; assay type: toxicity, cell-based
[8] = tested on: Staphylococcus aureus; assay: Antibacterial activity against methicillin-resistant Staphylococcus aureus BNCC 186335 assessed as inhibition of bacterial growth incubated for 4 hrs in presence of 25% plasma by broth microdilution method; assay type: functional
[9] = tested on: HEK-293T; assay: Cytotoxicity against human HEK293T cells assessed as cell survival rate at 256 ug/ml incubated for 24 hrs by MTT assay; assay type: toxicity, cell-based; conditions: dose 256 µg/ml
[10] = tested on: Staphylococcus aureus; assay: Antibacterial activity against methicillin-resistant Staphylococcus aureus BNCC 186335 infected in mouse C57BL/6 assessed as reduction in intracellular bacterial burden in kidney at 2 mg/kg ,ip incubated for 24 hrs; assay type: functional, organism-based
[11] = tested on: Staphylococcus aureus; assay: Antibacterial activity against methicillin-resistant Staphylococcus aureus BNCC 186335 infected in mouse C57BL/6 assessed as reduction in intracellular bacterial burden in lung at 2 mg/kg ,ip incubated for 24 hrs; assay type: functional, organism-based
[12] = tested on: Staphylococcus aureus; assay: Antibacterial activity against methicillin-resistant Staphylococcus aureus BNCC 186335 infected in mouse C57BL/6 assessed as reduction in intracellular bacterial burden in spleen at 2 mg/kg ,ip incubated for 24 hrs; assay type: functional, organism-based
[13] = tested on: Cell membrane; assay: Induction of membrane damage in multidrug-resistant Acinetobacter baumannii assessed as concentration of stained cells incubated for 2 hrs by propidium iodide staining based flow cytometer assay; assay type: subcellular; conditions: dose 16.0 µg/ml, DDE = dose-dependent effect
[14] = tested on: Cell membrane; assay: Induction of membrane damage in methicillin-resistant Staphylococcus aureus BNCC 186335 assessed as concentration of stained cells incubated for 2 hrs by propidium iodide staining based flow cytometer assay; assay type: subcellular
[15] = tested on: Staphylococcus aureus; assay: Antibacterial activity against methicillin-resistant Staphylococcus aureus BNCC 186335 infected in mouse C57BL/6 assessed as reduction in intracellular bacterial burden in liver at 2 mg/kg ,ip incubated for 24 hrs; assay type: functional, organism-based
[16] = Stability in human plasma assessed as half life measured after 24 hrs by HPLC analysis; assay type: ADME, cell-free
[17] = tested on: Enterococcus faecium; assay: Antibacterial activity against multidrug-resistant Enterococcus faecium assessed as inhibition of bacterial growth incubated for 16 hrs by broth microdilution method; assay type: functional
[18] = tested on: Staphylococcus aureus; assay: Antibacterial activity against multidrug-resistant Staphylococcus aureus BNCC 186335 assessed as inhibition of bacterial growth incubated for 16 hrs by broth microdilution method; assay type: functional
[19] = tested on: Klebsiella pneumoniae; assay: Antibacterial activity against multidrug-resistant Klebsiella pneumoniae assessed as inhibition of bacterial growth incubated for 16 hrs by broth microdilution method; assay type: functional
[20] = tested on: Acinetobacter baumannii; assay: Antibacterial activity against multidrug-resistant Acinetobacter baumannii assessed as inhibition of bacterial growth incubated for 16 hrs by broth microdilution method; assay type: functional
[21] = tested on: Pseudomonas aeruginosa; assay: Antibacterial activity against multidrug-resistant Pseudomonas aeruginosa BNCC 125486 assessed as inhibition of bacterial growth incubated for 16 hrs by broth microdilution method; assay type: functional
[22] = tested on: Escherichia coli; assay: Antibacterial activity against multidrug-resistant Escherichia coli BNCC 133264 assessed as inhibition of bacterial growth incubated for 16 hrs by broth microdilution method; assay type: functional
[23] = tested on: HEK-293T; assay: Cytotoxicity against human HEK293T cells assessed as cell survival rate at 128 ug/ml incubated for 24 hrs by MTT assay relative to control; assay type: toxicity, cell-based; conditions: dose 128 µg/ml
[24] = tested on: HEK-293T; assay: Cytotoxicity against human HEK293T cells assessed as cell survival rate at 8 to 128 Ug/ml incubated for 24 hrs by MTT assay relative to control; assay type: toxicity, cell-based; conditions: dose 8-128 µg/ml
[25] = tested on: HEK-293T; assay: Cytotoxicity against human HEK293T cells assessed as cell survival rate at 64 Ug/ml incubated for 24 hrs by MTT assay relative to control; assay type: toxicity, cell-based; conditions: dose 64 µg/ml

CC(C)[C@H](N)C(=O)N[C@H]1CCCCNCC#CCNCCCC[C@@H](C(=O)N[C@@H](Cc2ccccc2)C(=O)N[C@@H](Cc2ccccc2)C(=O)N[C@@H](CCCNC(=N)N)C(=O)N[C@@H](CCCCN)C(=O)N[C@@H](Cc2ccccc2)C(=O)N[C@@H](CCCCN)C(=O)N[C@@H](CCCCN)C(=O)N[C@@H](Cc2ccccc2)C(=O)N[C@H](C(N)=O)C(C)C)NC(=O)[C@H](CCCCN)NC(=O)[C@H](Cc2ccccc2)NC(=O)[C@H](CCCNC(=N)N)NC1=O
MIC [1]: 8 µg/mL (≈ 3.84 µM) | MIC [2]: 4 µg/mL (≈ 1.92 µM) | MIC [3]: 8 µg/mL (≈ 3.84 µM) | MIC [4]: 16 µg/mL (≈ 7.68 µM) | MIC [5]: 4 µg/mL (≈ 1.92 µM) | MIC [6]: 16 µg/mL (≈ 7.68 µM) | MHC [7]: > 128 µg/mL | MIC [8]: 128 µg/mL | Activity [9]: Toxic

CC(C)[C@H](N)C(=O)N[C@@H](CCCCN)C(=O)N[C@@H](CCCNC(=N)N)C(=O)N[C@@H](Cc1ccccc1)C(=O)N[C@@H](CCCCN)C(=O)N[C@H]1CCCCNCC#CCNCCCC[C@@H](C(=O)N[C@@H](Cc2ccccc2)C(=O)N[C@@H](CCCCN)C(=O)N[C@@H](CCCCN)C(=O)N[C@@H](Cc2ccccc2)C(=O)N[C@H](C(N)=O)C(C)C)NC(=O)[C@H](CCCNC(=N)N)NC(=O)[C@H](Cc2ccccc2)NC(=O)[C@H](Cc2ccccc2)NC1=O
MIC [1]: 4 µg/mL (≈ 1.92 µM) | MIC [2]: 2 µg/mL (≈ 0.96 µM) | MIC [3]: 2 µg/mL (≈ 0.96 µM) | MIC [4]: 16 µg/mL (≈ 7.68 µM) | MIC [5]: 2 µg/mL (≈ 0.96 µM) | MIC [6]: 16 µg/mL (≈ 7.68 µM) | MHC [7]: > 128 µg/mL | MIC [8]: 8 µg/mL | Activity [9]: Toxic

CC(C)[C@H](N)C(=O)N[C@@H](CCCCN)C(=O)N[C@@H](CCCNC(=N)N)C(=O)N[C@@H](Cc1ccccc1)C(=O)N[C@@H](CCCCN)C(=O)N[C@@H](CCCCN)C(=O)N[C@@H](Cc1ccccc1)C(=O)N[C@@H](Cc1ccccc1)C(=O)N[C@@H](CCCNC(=N)N)C(=O)N[C@@H](CCCCN)C(=O)N[C@@H](Cc1ccccc1)C(=O)N[C@@H](CCCCN)C(=O)N[C@@H](CCCCN)C(=O)N[C@@H](Cc1ccccc1)C(=O)N[C@H](C(N)=O)C(C)C (H-VKRFKKFFRKFKKFV-NH2)
Activity [10]: Active | Activity [11]: Active | Activity [12]: Active | Activity [13]: Dde | Activity [14]: 11% | MIC [1]: 8 µg/mL (≈ 3.94 µM) | MIC [2]: 4 µg/mL (≈ 1.97 µM) | MIC [3]: 16 µg/mL (≈ 7.87 µM) | Activity [15]: Active | MIC [4]: 8 µg/mL (≈ 3.94 µM) | MIC [5]: 2 µg/mL (≈ 0.984 µM) | MIC [6]: 16 µg/mL (≈ 7.87 µM) | MHC [7]: > 128 µg/mL | half-life [16]: 2.5 h | MIC [17]: 8 µg/mL (≈ 3.94 µM) | MIC [18]: 32 µg/mL (≈ 15.7 µM) | MIC [19]: 128 µg/mL (≈ 63 µM) | MIC [20]: 4 µg/mL (≈ 1.97 µM) | MIC [21]: 4 µg/mL (≈ 1.97 µM) | MIC [22]: 8 µg/mL (≈ 3.94 µM) | Activity [9]: Toxic

CC(C)[C@H](N)C(=O)N[C@H]1CCCCNCc2ccccc2CNCCCC[C@@H](C(=O)N[C@@H](Cc2ccccc2)C(=O)N[C@@H](Cc2ccccc2)C(=O)N[C@@H](CCCNC(=N)N)C(=O)N[C@@H](CCCCN)C(=O)N[C@@H](Cc2ccccc2)C(=O)N[C@@H](CCCCN)C(=O)N[C@@H](CCCCN)C(=O)N[C@@H](Cc2ccccc2)C(=O)N[C@H](C(N)=O)C(C)C)NC(=O)[C@H](CCCCN)NC(=O)[C@H](Cc2ccccc2)NC(=O)[C@H](CCCNC(=N)N)NC1=O
MIC [1]: 8 µg/mL (≈ 3.75 µM) | MIC [2]: 4 µg/mL (≈ 1.87 µM) | MIC [3]: 16 µg/mL (≈ 7.5 µM) | MIC [4]: 16 µg/mL (≈ 7.5 µM) | MIC [5]: 8 µg/mL (≈ 3.75 µM) | MIC [6]: 16 µg/mL (≈ 7.5 µM) | MHC [7]: > 128 µg/mL | MIC [8]: 128 µg/mL | Activity [23]: Non-Toxic | Activity [9]: Toxic

CC(C)C[C@H](NC(=O)[C@H](C)NC(=O)[C@H](CCCCN)NC(=O)[C@H](C)NC(=O)[C@H](C)NC(=O)CNC(=O)[C@@H]1CCCCNC/C=C/CNCCCC[C@H](NC(=O)[C@H](Cc2ccccc2)NC(=O)CN)C(=O)N[C@@H](CC(=O)O)C(=O)N[C@@H](CC(C)C)C(=O)N[C@@H](CC(C)C)C(=O)N1)C(=O)N[C@H](C(=O)N[C@@H](CCCCN)C(=O)N[C@H](C(=O)N[C@H](C(=O)N[C@@H](CC(C)C)C(=O)N[C@@H](Cc1ccccc1)C(N)=O)C(C)C)[C@@H](C)O)C(C)C (H-GF[X1]DLL[X1]GAAKALVKTVLF-NH2; staple (E) 3-7)
MIC [1]: 16 µg/mL (≈ 7.73 µM) | MIC [2]: 4 µg/mL (≈ 1.93 µM) | MIC [3]: 16 µg/mL (≈ 7.73 µM) | MIC [4]: 128 µg/mL (≈ 61.8 µM) | MIC [5]: 16 µg/mL (≈ 7.73 µM) | MIC [6]: 32 µg/mL (≈ 15.5 µM) | MHC [7]: 32 µg/mL | Activity [24]: Toxic

CC(C)[C@H](N)C(=O)N[C@H]1CCCCNC/C=C/CNCCCC[C@@H](C(=O)N[C@@H](Cc2ccccc2)C(=O)N[C@@H](Cc2ccccc2)C(=O)N[C@@H](CCCNC(=N)N)C(=O)N[C@@H](CCCCN)C(=O)N[C@@H](Cc2ccccc2)C(=O)N[C@@H](CCCCN)C(=O)N[C@@H](CCCCN)C(=O)N[C@@H](Cc2ccccc2)C(=O)N[C@H](C(N)=O)C(C)C)NC(=O)[C@H](CCCCN)NC(=O)[C@H](Cc2ccccc2)NC(=O)[C@H](CCCNC(=N)N)NC1=O (H-V[X1]RFK[X1]FFRKFKKFV-NH2; staple (E) 2-6)
MIC [1]: 4 µg/mL (≈ 1.92 µM) | MIC [2]: 2 µg/mL (≈ 0.959 µM) | MIC [3]: 16 µg/mL (≈ 7.68 µM) | MIC [4]: 8 µg/mL (≈ 3.84 µM) | MIC [5]: 4 µg/mL (≈ 1.92 µM) | MIC [6]: 16 µg/mL (≈ 7.68 µM) | MHC [7]: > 128 µg/mL | Activity [25]: Toxic | MIC [8]: 128 µg/mL | Activity [9]: Toxic
